Laboratory results: US9226965B2, “Method and composition for treating heart failure” (U.S. DEPARTMENT OF VETERANS AFFAIRS, priority 2007, dated 2016)
Entries after “also recorded” stand apart in the source; their conditions may differ.

How the values were obtained:
Format in all cases: in vivo, rat
[1] = test system: spontaneously hypertensive rats (SHR) with heart failure; assay: Body weight, cardiac chamber weights and hypertrophy indices in SHR with heart failure after 30 days of treatment
Text: Adult male spontaneously hypertensive rats (SHR) rats were purchased as retired breeders from Taconic Inc and boarded in the animal facility at the Boston VA Healthcare system until the time of study (18 to 24 months of age). Each rat was caged alone and allowed free access to chow and water. Animals were monitored several times per week for evidence of tachypnea and labored respiration; when these clinical findings were clearly in evidence, animals were either killed and studied or treated with captopril and/or phenylbutyrate. Groups of animals were treated by adding the angiotensin converting enzyme inhibitor captopril to the drinking water (2 g/L to drinking water) and/or phenylbutyrate to the drinking water (6 g/L to the drinking water; sodium 4-phenylbutyrate (Triple Crown America, Inc.)) when clinical evidence of impaired cardiac function was detected. Treatment was continued for 30 days, the animals closely monitored and then studied. A control group of age-matched, untreated SHR rats was used for comparison. At autopsy, animals were examined for pleural or pericardial effusions, atrial thrombi, and right and left ventricular hypertrophy. The heart was lightly blotted and weight, and individual cardiac chambers were quickly dissected, and chamber weight recorded. Left ventricular tissue samples were rapidly frozen and stored in liquid nitrogen for later mRNA analysis. Subsequently, total RNA was isolated from all left ventricular samples and subjected to individual Affymetrix (230 2.0) array analysis (performed at the Genomics Laboratory of Boston University School of Medicine, Boston Mass.). Six individual animals were included in each experimental group. Table 1 (below) summarizes body weight, cardiac chamber weight, and ratios with and without treatment. Referring to Table 1, four groups of six SHR/group were examined: non-treated SHR with heart failure (SHR-F), age matched controls without heart failure (SHR-NF), and SHR with heart failure treated with the angiotensin converting enzyme inhibitor captopril (2 g/L in drinking water) (SHR-F+C) or captopril combined with the histone deacetylase inhibitor phenylbutyrate (6 g/L in the drinking water) for 30 days (SHR-F+CP). […] It was observed that SHR rats with heart failure had enlarged hearts and increased cardiac chamber weights relative to non-failing SHR group and the captopril treated SHR groups. In contrast, the rats treated with phenylbutyrate and captopril had far smaller cardiac chamber weights. There were no significant differences in body weight among the experimental groups. Indices of cardiac hypertrophy (i.e. LV/body weight ratio and RV/body weight ratios) were reduced with phenylbutyrate treatment. Cardiac chamber weight to tibia length data confirmed these findings.

SHR with heart failure [2] = assay: Serial echocardiographic measurement of LV ejection fraction in SHR; details: echocardiography, SHR-F following 30 days of treatment, n=6 per group
Text: FIGS. 1A-1B illustrate serial echocardiographic measurements in SHR. LV ejection fraction (FIG. 1A) and end-systolic and end-diastolic LV volume (FIG. 1B) of male SHR during the transition to heart failure (12, 17, and 19 months of age). EF, LV ejection fraction (%); ESV, end-systolic volume (ml); EDV, end-diastolic volume (ml). LV function remains compensated until approximately 17 months, and then rapidly declines; mean age at onset of heart failure 19±1 months. FIGS. 2A-2B represent serial echocardiographic measurements (n=6 animals per group) of LV ejection fraction (LVEF) from individual SHR obtained before the onset of heart failure (Baseline), at the time of heart failure (HF) and following 30 days of treatment (Rx) with either captopril (CAPT—FIG. 2A) or combined captopril and phenylbutyrate treatment (CAPT+PB—FIG. 2B). Note marked reduction in LVEF with HF. […] FIG. 3 illustrates LV ejection fraction (LVEF) in non-failing SHR (SHR-NF), SHR with HF (SHR-F) and SHR-F following 30 days of captopril (CAPT) or combined phenylbutyrate and captopril treatment (CAPT+PB). […] Data are mean±SD (n=6 per group).

[3] = test system: left ventricular papillary muscles from SHR with heart failure; assay: Mechanical function of isolated left ventricular papillary muscles from treated SHR with heart failure
Method: At the time of sacrifice, left ventricular papillary muscles were dissected free and mounted in an isolated muscle bath containing oxygenated physiologic solution for assessment of mechanical function. Muscle mechanics were measured under computer control of force or length of the preparation. Force and length data were sampled at a rate of 1 kHz and stored on disk for later analysis.
Treatment was continued for 30 days and then the animals studied.
We studied isolated papillary muscle function in the spontaneously hypertensive rat (SHR) which develops heart failure (HF) between 18-24 month of age. […] Following treatment, hearts were isolated and contractile function of LV papillary muscles studied. LV weight and histology were assessed. RNA was isolated from 24 LV samples and subjected to individual Affymetrix (230 2.0) array analysis.

[4] = test system: left ventricular tissue from SHR with heart failure; assay: Affymetrix (230 2.0) array mRNA analysis of left ventricular tissue from treated SHR with heart failure
Text: Adult male spontaneously hypertensive rats (SHR) rats were purchased as retired breeders from Taconic Inc and boarded in the animal facility at the Boston VA Healthcare system until the time of study (18 to 24 months of age). Each rat was caged alone and allowed free access to chow and water. Animals were monitored several times per week for evidence of tachypnea and labored respiration; when these clinical findings were clearly in evidence, animals were either killed and studied or treated with captopril and/or phenylbutyrate. Groups of animals were treated by adding the angiotensin converting enzyme inhibitor captopril to the drinking water (2 g/L to drinking water) and/or phenylbutyrate to the drinking water (6 g/L to the drinking water; sodium 4-phenylbutyrate (Triple Crown America, Inc.)) when clinical evidence of impaired cardiac function was detected. Treatment was continued for 30 days, the animals closely monitored and then studied. A control group of age-matched, untreated SHR rats was used for comparison. At autopsy, animals were examined for pleural or pericardial effusions, atrial thrombi, and right and left ventricular hypertrophy. The heart was lightly blotted and weight, and individual cardiac chambers were quickly dissected, and chamber weight recorded. Left ventricular tissue samples were rapidly frozen and stored in liquid nitrogen for later mRNA analysis. Subsequently, total RNA was isolated from all left ventricular samples and subjected to individual Affymetrix (230 2.0) array analysis (performed at the Genomics Laboratory of Boston University School of Medicine, Boston Mass.). Six individual animals were included in each experimental group. […] FIGS. 7A-7B provide a visual summary of the quantitative changes in transcripts observed with heart failure (SHR-F) compared to non-failing gene expression (SHR-F vs. SHR-NF) and those effects of treatment (SHR-F+C and SHR-F+CP) relative to un-treated SHR with heart failure. […] FIGS. 8A-8B provide a summary of the number of identified transcripts whose expression was reversed following treatment relative to un-treated SHR with failure. In contrast, phenylbutyrate when combined with captopril treatment reversed expression of more than 47% of heart failure-induced changes in gene expression (p<0.01). […] Analysis of pooled mRNA samples of right ventricular tissue indicate relatively few genes were differentially expressed between LV and RV tissue either with failure or treatment (data not shown). LV and RV are similarly affected by heart failure and amenable to therapeutic treatment effects. Taken together, these findings are consistent with the concept that phenylbutyrate acts as a wide scale inhibitor of transcription to reverse aspects of adverse remodeling and dysfunction associated with heart failure. […] We studied isolated papillary muscle function in the spontaneously hypertensive rat (SHR) which develops heart failure (HF) between 18-24 month of age. Four groups of SHR each consisting of six animals were examined: non-treated SHR with HF (SHR-F), age matched controls without HF (SHR-NF), and SHR with HF that were treated with the ACE inhibitor captopril (2 g/L in drinking water) (SHR-F+C) or captopril combined with the histone deacetylase inhibitor phenylbutyrate (6 g/L in drinking water) for 30 days (SHR-F+CP). […] Following treatment, hearts were isolated and contractile function of LV papillary muscles studied. LV weight and histology were assessed. RNA was isolated from 24 LV samples and subjected to individual Affymetrix (230 2.0) array analysis. Table 3 (below) summarizes the physiological, histological and gene expression findings from this study. […] SHR-F; see FIGS. 7A-7B).

SHR with heart failure [5] = assay: Quantitative histological examination of myocardial fibrosis; details: Table 3, 30 days treatment, mean ± SD
Method: We studied isolated papillary muscle function in the spontaneously hypertensive rat (SHR) which develops heart failure (HF) between 18-24 month of age. Four groups of SHR each consisting of six animals were examined: non-treated SHR with HF (SHR-F), age matched controls without HF (SHR-NF), and SHR with HF that were treated with the ACE inhibitor captopril (2 g/L in drinking water) (SHR-F+C) or captopril combined with the histone deacetylase inhibitor phenylbutyrate (6 g/L in drinking water) for 30 days (SHR-F+CP). […] Following treatment, hearts were isolated and contractile function of LV papillary muscles studied. LV weight and histology were assessed. RNA was isolated from 24 LV samples and subjected to individual Affymetrix (230 2.0) array analysis. Table 3 (below) summarizes the physiological, histological and gene expression findings from this study. […] SHR-F; see FIGS. 7A-7B).

[6] = Table 1, SHR with heart failure, 30 days treatment, mean ± SD, n=6
[7] = Table 2, LV papillary muscle after 30 days treatment, mean ± SD
[8] = Table 3, LV papillary muscle after 30 days treatment, mean ± SD
[9] = Table 3, LV samples, p < 0.01 vs. SHR-F
[10] = of 1431 genes different between SHR-F and SHR-NF, p<0.01 vs. SHR-F

C[C@H](CS)C(=O)N1CCC[C@H]1C(=O)O [captopril]
LV/BW ratio, index of LV hypertrophy, result in words ([1]; FIG. 4A, SHR-F following 30 days of treatment): no significant reduction | RV/BW ratio, index of RV hypertrophy, result in words ([1]; FIG. 4B, SHR-F following 30 days of treatment): decreased with treatment | LV/body wt. (left ventricular to body weight ratio) [1, 6]: 3.3 ± 0.3^+ ratio | RV/body wt. (right ventricular to body weight ratio) [1, 6]: 0.86 ± 0.20^+ ratio | LV/Body Weight (ratio) ([1]; Table 3, SHR with heart failure, 30 days treatment, mean ± SD): 3.3 ± 0.4 ratio | LV ejection fraction (LVEF), result in words (SHR with heart failure [2]): minimal improvement; also recorded: no significant change | quick release force-velocity (F-V) relationships from LV papillary muscles, result in words ([3]; FIG. 6A): not significantly increased | active tension (AT) of LV papillary muscles, result in words ([3]; FIG. 6B): did not improve | contractile function and passive muscle stiffness, result in words ([3]; SHR with heart failure, 30 days treatment): did not restore contractile function or reduce passive muscle stiffness | +dT/dt (rate of tension development) [3, 7]: 28.4 ± 8.0 g/mm^2/s | AT (active tension) [3, 7]: 2.7 ± 0.4 g/mm^2 | Kwm (whole muscle stiffness) [3, 7]: 73.9 ± 4.2 | V1.0 (shortening velocity) [3, 7]: 0.9 ± 0.2 muscle length/s | AT (active tension) [3, 8]: 2.7 ± 0.4 g/mm^2 | V0.1 (shortening velocity) [3, 8]: 0.9 ± 0.2 muscle lengths/s | Gene Expression (number), down-regulated (↓) vs. SHR-F [4, 9]: 42 | Gene Expression (number), up-regulated (↑) vs. SHR-F [4, 9]: 99 | number of identified genes down-regulated by treatment (overexpressed/induced with heart failure) ([4]; identified transcripts): 12 | number of identified genes up-regulated by treatment (repressed with heart failure) ([4]; identified transcripts): 15 | number of identified genes whose expression was reversed by treatment ([4]; identified transcripts, relative to un-treated SHR with failure): 27 | number of genes whose change in expression was significantly reversed [4, 10]: 141 | percentage of genes whose change in expression was significantly reversed [4, 10]: 9.8% | transcripts significantly modified with treatment ([4]; of heart failure-altered transcripts, p<0.01): < 2% | Fibrosis (%) (SHR with heart failure [5]): 22.8 ± 3.1 %
